# Source: patent publication US20250136548A1, “FUNCTIONALIZED ALKYLAMINES” (Terran Biosciences Inc., priority 2022, published 2025)
# Biological target: T1, 5-HT2A receptor (Homo sapiens, UniProt P28223)
# T1 construct: host or cells: unnamed cell lines
# Test: Calcium mobilization assay, agonist format, 5-HT2A receptor
# Assay type: cell-based
# Details: agonist mode, % activity relative to MAX control ligand (5-HT positive control), read-out: 5-HT2A agonist efficacy @ 1 μM
# Method: (§1) • Protocol: in vitro testing at select 5-hydroxytryptamine (5-HT; serotonin) receptors was conducted.
# (§2) Assay Design: Calcium Mobilization
# (§3) • 1. Cell lines were expanded from freezer stocks according to standard procedures. • 2. Cells were seeded in a total volume of 20 μL into black-walled, clear-bottom, Poly-D-lysine coated 384-well microplates and incubated at 37° C. for the appropriate time prior to testing.
# (§4) • 1. Assays were performed in 1×Dye Loading Buffer consisting of 1× Dye, 1× Additive A and 2.5 mM Probenecid in HBSS/20 mM Hepes. Probenicid was prepared fresh. • 2. Cells were loaded with dye prior to testing. Media was aspirated from cells and replaced with 20 μL Dye Loading Buffer. • 3. Cells were incubated for 30-60 minutes at 37° C.
# (§5) • 1. For agonist determination, cells were incubated with sample to induce response. • 2. After dye loading, cells were removed from the incubator and 10 μL HBSS/20 mM Hepes was added. 3× vehicle was included in the buffer when performing agonist dose curves to define the EC80 for subsequent antagonist assays. Cells were incubated for 30 minutes at room temperature in the dark to equilibrate plate temperature. • 3. Intermediate dilution of sample stocks was performed to generate 4× sample in assay buffer. • 4. Compound agonist activity was measured on a FLIPR Tetra (MDS). Calcium mobilization was monitored for 2 minutes and 10 μL 4× sample in HBSS/20 mM Hepes was added to the cells 5 seconds into the assay.
# (§6) • 1. Compound activity was analyzed using CBIS data analysis suite (ChemInnovation, CA). • 2. For agonist mode assays, percentage activity is calculated using the following formula:
# (§7) % Activity=100%×(mean RFU of test sample−mean RFU of vehicle control)/(mean MAX RFU control ligand −mean RFU of vehicle control). • 3. For positive allosteric mode assays, percentage modulation was calculated using the following formula: […]
# T1 sequence (P28223 whole entry): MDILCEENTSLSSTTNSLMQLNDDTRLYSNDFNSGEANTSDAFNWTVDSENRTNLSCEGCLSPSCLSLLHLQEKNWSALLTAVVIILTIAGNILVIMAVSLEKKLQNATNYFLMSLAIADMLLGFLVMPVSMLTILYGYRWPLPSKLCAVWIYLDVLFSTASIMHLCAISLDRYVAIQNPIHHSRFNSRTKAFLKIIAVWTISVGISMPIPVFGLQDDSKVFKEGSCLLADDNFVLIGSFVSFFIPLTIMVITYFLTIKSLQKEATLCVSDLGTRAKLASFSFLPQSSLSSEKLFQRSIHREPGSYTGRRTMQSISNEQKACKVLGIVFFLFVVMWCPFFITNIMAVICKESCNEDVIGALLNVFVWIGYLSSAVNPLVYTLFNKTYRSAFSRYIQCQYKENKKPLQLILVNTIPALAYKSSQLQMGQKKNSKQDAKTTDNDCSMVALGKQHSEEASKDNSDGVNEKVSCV
row,Compound,activation at 1 µM [%]
1,CC1(O)CCN(CCc2c[nH]c3cc(F)ccc23)C1 (stereo not shown) [1-[2-(6-fluoro-1H-indol-3-yl)ethyl]-3-methyl-pyrrolidin-3-ol],-0.3
2,"CN(CCO)CCn1ccc2cc(F)c(F)cc21 [2-[2-(5,6-Difluoroindol-1-yl)ethyl-methyl-amino]ethanol]",6.2
3,"CC1(O)CCN(CCc2c[nH]c3cc(F)c(F)cc23)C1 (stereo not shown) [1-[2-(5,6-difluoro-1H-indol-3-yl)ethyl]-3-methyl-pyrrolidin-3-ol]",1.9
4,CN(CCO)CCn1ccc2ccc(F)cc21 [2-[2-(6-Fluoroindol-1-yl)ethyl-methyl-amino]ethanol],8.3
5,CN(CCn1ccc2ccc(F)cc21)CCS(C)(=O)=O [2-(6-Fluoroindol-1-yl)-N-methyl-N-(2-methylsulfonylethyl)ethanamine],-1.2
6,OC1CCN(CCn2ccc3cc(F)ccc32)C1 (stereo not shown) [1-[2-(5-Fluoroindol-1-yl)ethyl]pyrrolidin-3-ol],-0.2
7,CC1(O)CCN(CCn2ccc3cc(F)ccc32)C1 (stereo not shown) [1-[2-(5-Fluoroindol-1-yl)ethyl]-3-methyl-pyrrolidin-3-ol],-0.3
8,OC1CCN(CCn2ccc3ccc(F)cc32)C1 (stereo not shown) [1-[2-(6-Fluoroindol-1-yl)ethyl]pyrrolidin-3-ol],2.5
9,CN(CCc1c[nH]c2ccc(F)cc12)CCS(C)(=O)=O [2-(5-fluoro-1H-indol-3-yl)-N-methyl-N-(2-methylsulfonylethyl)ethanamine],27.3
10,CN(CCO)CCn1ccc2cc(F)ccc21 [2-[2-(5-Fluoroindol-1-yl)ethyl-methyl-amino]ethanol],-0.2
11,CN(CCO)CCc1c[nH]c2ccc(F)cc12 [2-[2-(5-Fluoro-1H-indol-3-yl)ethyl-methyl-amino]ethanol],47.1
12,OC1CCN(CCc2c[nH]c3ccc(F)cc23)C1 (stereo not shown) [1-[2-(5-fluoro-1H-indol-3-yl)ethyl]pyrrolidin-3-olethanamine],46
13,CC1(O)CCN(CCc2c[nH]c3ccc(F)cc23)C1 (stereo not shown) [1-[2-(5-fluoro-1H-indol-3-yl)ethyl]-3-methyl-pyrrolidin-3-ol],7.5
14,CC1(O)CCN(CCn2ccc3ccc(F)cc32)C1 (stereo not shown) [1-[2-(6-Fluoroindol-1-yl)ethyl]-3-methyl-pyrrolidin-3-ol],0
15,"CN(CCn1ccc2cc(F)c(F)cc21)CCS(C)(=O)=O [2-(5,6-Difluoroindol-1-yl)-N-methyl-N-(2-methylsulfonylethyl)ethanamine]",-0.5
16,"COc1ccc2c3c([nH]c2c1)CCNCC3 [8-methoxy-1,2,3,4,5,6-hexahydroazepino[4,5-b]indole, reference compound]",71.7
17,"COc1ccc2c3c([nH]c2c1)CCN(C)CC3 [TBG, 8-methoxy-3-methyl-1,2,3,4,5,6-hexahydroazepino[4,5-b]indole, reference compound]",18.2
18,"OC1CCN(CCn2ccc3cc(F)c(F)cc32)C1 (stereo not shown) [1-[2-(5,6-Difluoroindol-1-yl)ethyl]pyrrolidin-3-ol]",2
19,"CC1(O)CCN(CCn2ccc3cc(F)c(F)cc32)C1 (stereo not shown) [1-[2-(5,6-Difluoroindol-1-yl)ethyl]-3-methyl-pyrrolidin-3-ol]",-0.1
20,CN(CCn1ccc2cc(F)ccc21)CCS(C)(=O)=O [2-(5-Fluoroindol-1-yl)-N-methyl-N-(2-methylsulfonylethyl)ethanamine],-0.8

# Biological target: T2, 5-HT2B receptor (Homo sapiens, UniProt P41595)
# T2 construct: host or cells: unnamed cell lines
# T2 sequence (P41595 whole entry): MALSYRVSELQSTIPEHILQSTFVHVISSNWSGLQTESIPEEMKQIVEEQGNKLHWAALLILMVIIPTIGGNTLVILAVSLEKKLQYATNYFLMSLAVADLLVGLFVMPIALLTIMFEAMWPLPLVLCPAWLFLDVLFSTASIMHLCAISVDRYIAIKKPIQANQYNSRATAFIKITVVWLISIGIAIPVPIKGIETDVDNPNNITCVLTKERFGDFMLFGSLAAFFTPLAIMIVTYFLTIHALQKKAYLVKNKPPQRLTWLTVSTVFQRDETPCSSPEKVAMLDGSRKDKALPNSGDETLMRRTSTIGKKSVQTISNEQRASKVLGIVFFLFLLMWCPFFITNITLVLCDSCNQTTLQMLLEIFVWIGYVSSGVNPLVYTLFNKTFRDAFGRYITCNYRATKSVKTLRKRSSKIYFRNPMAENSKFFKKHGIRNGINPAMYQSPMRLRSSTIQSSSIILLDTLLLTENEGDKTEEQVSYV
# Test: Calcium mobilization assay, agonist format, 5-HT2B receptor
# Assay type: cell-based
# Details: agonist mode, % activity relative to MAX control ligand (5-HT positive control), read-out: 5-HT2B agonist efficacy @ 1 μM
# Method: as §1, §2, §3, §4, §5, §6, §7
row,Compound,activation at 1 µM [%]
1,CC1(O)CCN(CCc2c[nH]c3cc(F)ccc23)C1 (stereo not shown) [1-[2-(6-fluoro-1H-indol-3-yl)ethyl]-3-methyl-pyrrolidin-3-ol],-1.1
2,"CN(CCO)CCn1ccc2cc(F)c(F)cc21 [2-[2-(5,6-Difluoroindol-1-yl)ethyl-methyl-amino]ethanol]",0.1
3,"CC1(O)CCN(CCc2c[nH]c3cc(F)c(F)cc23)C1 (stereo not shown) [1-[2-(5,6-difluoro-1H-indol-3-yl)ethyl]-3-methyl-pyrrolidin-3-ol]",-1
4,CN(CCO)CCn1ccc2ccc(F)cc21 [2-[2-(6-Fluoroindol-1-yl)ethyl-methyl-amino]ethanol],0.2
5,CN(CCn1ccc2ccc(F)cc21)CCS(C)(=O)=O [2-(6-Fluoroindol-1-yl)-N-methyl-N-(2-methylsulfonylethyl)ethanamine],-1.3
6,OC1CCN(CCn2ccc3cc(F)ccc32)C1 (stereo not shown) [1-[2-(5-Fluoroindol-1-yl)ethyl]pyrrolidin-3-ol],-1.2
7,CC1(O)CCN(CCn2ccc3cc(F)ccc32)C1 (stereo not shown) [1-[2-(5-Fluoroindol-1-yl)ethyl]-3-methyl-pyrrolidin-3-ol],-1.1
8,OC1CCN(CCn2ccc3ccc(F)cc32)C1 (stereo not shown) [1-[2-(6-Fluoroindol-1-yl)ethyl]pyrrolidin-3-ol],-2.8
9,CN(CCc1c[nH]c2ccc(F)cc12)CCS(C)(=O)=O [2-(5-fluoro-1H-indol-3-yl)-N-methyl-N-(2-methylsulfonylethyl)ethanamine],-0.5
10,CN(CCO)CCn1ccc2cc(F)ccc21 [2-[2-(5-Fluoroindol-1-yl)ethyl-methyl-amino]ethanol],-1.4
11,CN(CCO)CCc1c[nH]c2ccc(F)cc12 [2-[2-(5-Fluoro-1H-indol-3-yl)ethyl-methyl-amino]ethanol],1.2
12,OC1CCN(CCc2c[nH]c3ccc(F)cc23)C1 (stereo not shown) [1-[2-(5-fluoro-1H-indol-3-yl)ethyl]pyrrolidin-3-olethanamine],-0.7
13,CC1(O)CCN(CCc2c[nH]c3ccc(F)cc23)C1 (stereo not shown) [1-[2-(5-fluoro-1H-indol-3-yl)ethyl]-3-methyl-pyrrolidin-3-ol],-1.5
14,CC1(O)CCN(CCn2ccc3ccc(F)cc32)C1 (stereo not shown) [1-[2-(6-Fluoroindol-1-yl)ethyl]-3-methyl-pyrrolidin-3-ol],-1.3
15,"CN(CCn1ccc2cc(F)c(F)cc21)CCS(C)(=O)=O [2-(5,6-Difluoroindol-1-yl)-N-methyl-N-(2-methylsulfonylethyl)ethanamine]",-1.3
16,"COc1ccc2c3c([nH]c2c1)CCNCC3 [8-methoxy-1,2,3,4,5,6-hexahydroazepino[4,5-b]indole, reference compound]",-0.8
17,"COc1ccc2c3c([nH]c2c1)CCN(C)CC3 [TBG, 8-methoxy-3-methyl-1,2,3,4,5,6-hexahydroazepino[4,5-b]indole, reference compound]",-2.2
18,"OC1CCN(CCn2ccc3cc(F)c(F)cc32)C1 (stereo not shown) [1-[2-(5,6-Difluoroindol-1-yl)ethyl]pyrrolidin-3-ol]",-0.7
19,"CC1(O)CCN(CCn2ccc3cc(F)c(F)cc32)C1 (stereo not shown) [1-[2-(5,6-Difluoroindol-1-yl)ethyl]-3-methyl-pyrrolidin-3-ol]",-2.5
20,CN(CCn1ccc2cc(F)ccc21)CCS(C)(=O)=O [2-(5-Fluoroindol-1-yl)-N-methyl-N-(2-methylsulfonylethyl)ethanamine],-2.7
